Columns and labels:
GHSR1a [1] = target: T1, GHSR1a (Homo sapiens, UniProt Q92847); experiment: Calcium FLIPR assay, GHSR-1a antagonism (reduction of ghrelin response); assay type: cell-based; settings: HEK293/GHSR1a cells, ghrelin 10 nM
T1 construct: expressed in transfected cells; host or cells: HEK293
Description: (§1) The intracellular calcium assay was carried out in a 384-well format FLIPR™ (Molecular Device) HEK293/GHSR1a cell line. Cells were seeded 24 hr prior to the experiments at an optimal density per well. Preincubation with selected calcium dye lasted for 30-60 min at room temperature or 37° C. Test compounds, dissolved in DMSO, were added at the appropriate time and incubated for 15 min followed by the addition of ghrelin with FlexStation or FLIPR. Relative fluorescence was monitored by the FLIPR™ Molecular Device. EC50 and IC50 values were estimated from dose-response data using GraphPad Prism software. To check for GHSR-1a agonism the compound was added at t=20 sec. and the calcium response was followed for 2 minutes. To check for GHSR-1a antagonism the compound and Ghrelin (10 nM) were added to the cells at t=20 sec. and the calcium response was measured for 2 minutes. The potency of the antagonist was calculated by its ability to reduce the ghrelin response. Dose-response curves were made for relevant antagonists.

GHSR1a [2] = target: T1, GHSR1a; experiment: Calcium FLIPR assay, GHSR-1a agonism; assay type: cell-based; set-up: Emax: unit not given here; settings: HEK293/GHSR1a cells
Description: as §1

T1 sequence (Q92847 whole entry): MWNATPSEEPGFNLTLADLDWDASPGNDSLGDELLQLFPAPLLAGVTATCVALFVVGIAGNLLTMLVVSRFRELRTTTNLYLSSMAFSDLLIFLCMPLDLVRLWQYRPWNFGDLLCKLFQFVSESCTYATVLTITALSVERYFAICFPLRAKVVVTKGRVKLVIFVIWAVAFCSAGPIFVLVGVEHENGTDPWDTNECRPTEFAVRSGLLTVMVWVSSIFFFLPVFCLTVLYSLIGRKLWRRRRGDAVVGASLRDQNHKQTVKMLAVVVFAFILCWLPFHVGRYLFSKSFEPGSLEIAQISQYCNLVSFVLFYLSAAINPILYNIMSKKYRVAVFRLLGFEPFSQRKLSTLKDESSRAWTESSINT

Compound | IC50 (GHSR1a [1]) [nM] | EC50 (GHSR1a [2]) [nM] | Emax (GHSR1a [2])
CN1CCC(N(O)C(=O)NC(CC2CC2)c2ccc(-c3cnccn3)c(Cl)c2Cl)CC1 (single isomer, unassigned) [Compound H0781, 3-(2-cyclopropyl-1-(2,3-dichloro-4-(pyrazin-2-yl)phenyl)ethyl)-1-hydroxy-1-(1-methylpiperidin-4-yl)urea] | 95 | 420 | 4210
C[C@H](NC(=O)N(C)C1CCN(C)C1)c1ccc(-c2cnccn2)c(Cl)c1Cl (single isomer, unassigned) [Compound H0861] | 189 | > 30000 | 
CC(NC(=O)N(C)C1CCN(C)CC1)c1ccc(-c2cccc3c2cnn3C)c(Cl)c1Cl (stereo not drawn) [Compound H0512, 3-(1-(2,3-dichloro-4-(1-methyl-1H-indazol-4-yl)phenyl)ethyl)-1-methyl-1-(1-methylpiperidin-4-yl)urea] | 495 | > 30000 | 
CC(NC(=O)N(C)C1CCN(C)CC1)c1ccc(-c2cccc3[nH]ncc23)c(Cl)c1Cl (stereo not drawn) [Compound H0513, 3-(1-(2,3-dichloro-4-(1H-indazol-4-yl)phenyl)ethyl)-1-methyl-1-(1-methylpiperidin-4-yl)urea] | 544 | > 30000 | 
CC(NC(=O)N(C)C1CCN(C)CC1)c1ccc(-c2ccc3[nH]ccc3c2)c(Cl)c1Cl (stereo not drawn) [Compound H0515, 3-(1-(2,3-dichloro-4-(1H-indol-5-yl)phenyl)ethyl)-1-methyl-1-(1-methylpiperidin-4-yl)urea] | 40 | 885 | 
CC(NC(=O)N(C)C1CCN(C)CC1)c1ccc(-c2ccc(N(C)C)cc2)c(Cl)c1Cl (stereo not drawn) [Compound H0518, 3-(1-(2,3-dichloro-4′-(dimethylamino)-[1,1′-biphenyl]-4-yl)ethyl)-1-methyl-1-(1-methylpiperidin-4-yl)urea] | 841 | > 30000 | 
CC(NC(=O)N(C)C1CCN(C)CC1)c1ccc(C#N)c(Cl)c1Cl (stereo not drawn) [Compound H0523, 3-(1-(2,3-dichloro-4-cyanophenyl)ethyl)-1-methyl-1-(1-methylpiperidin-4-yl)urea] | 668 | > 30000 | 
CC(NC(=O)N(C)C1CCN(C)CC1)c1ccc(-c2cncnc2)c2ccccc12 (stereo not drawn) [Compound H0579, 1-methyl-1-(1-methylpiperidin-4-yl)-3-(1-(4-(pyrimidin-5-yl)naphthalen-1-yl)ethyl)urea] |  | > 30000 | 
COC(=O)c1ccc(C#Cc2ccc(C(C)NC(=O)N(C)C3CCN(C)CC3)c(Cl)c2Cl)s1 (stereo not drawn) [Compound H0779] | 429 |  | 

Further lines, results first:

IC50 (GHSR1a [1]) [nM] | EC50 (GHSR1a [2]) [nM] | Emax (GHSR1a [2]) | Compound
75 | 124 | 1987 | CC(NC(=O)N(C)C1CCN(C)CC1)c1ccc(-c2cccs2)c(Cl)c1Cl (single isomer, unassigned) [Compound H0564, 3-(1-(2,3-dichloro-4-(thiophen-2-yl)phenyl)ethyl)-1-methyl-1-(1-methylpiperidin-4-yl)urea]
2200 | > 30000 |  | CC[C@@H](NC(=O)N(C)C1CCN(C)CC1)c1ccc(-c2cnccn2)c(Cl)c1Cl (single isomer, unassigned) [Compound H0859]
19 | > 30000 |  | CC(NC(=O)N(C)C1CCN(C)CC1)c1ccc(-c2ccc(N)cc2)c(Cl)c1Cl (stereo not drawn) [Compound H0517, 3-(1-(4′-amino-2,3-dichloro-[1,1′-biphenyl]-4-yl)ethyl)-1-methyl-1-(1-methylpiperidin-4-yl)urea]
202 | 394 |  | CC(NC(=O)N(C)C1CCN(C)CC1)c1ccc(C2=CCCCC2)c(Cl)c1Cl (stereo not drawn) [Compound H0520, 3-(1-(2,3-dichloro-2′,3′,4′,5′-tetrahydro-[1,1′-biphenyl]-4-yl)ethyl)-1-methyl-1-(1-methylpiperidin-4-yl)urea]
20 | 19 |  | COC(=O)c1ccc(C(C)NC(=O)N(C)C2CCN(C)CC2)c(Cl)c1Cl (stereo not drawn) [Compound H0521]
 | 5 | 4961 | COc1ccc(C(C#N)NC(=O)N(C)C2CCN(C)CC2)c(Cl)c1Cl (stereo not drawn) [Compound H0669, 3-(cyano(2,3-dichloro-4-methoxyphenyl)methyl)-1-methyl-1-(1-methylpiperidin-4-yl)urea]
